Source: US6923921B2, “Fluorinated polyether compositions” (3M Innovative Properties Company, priority 2002, dated 2005)

Assay: Toxicokinetic study with HFPO alcohols: oral absorption and serum elimination (total fluorine in serum)
Design: species or system Male Sprague-Dawley rats
Conditions: rat, in vivo, 30 mg/kg
Method: The objective of this study was to assess the oral absorption and serum elimination half-life of six hexafluoropropylene oxide (HFPO)-alcohol oligomers (CF3CF2CF2O(CF(CF3)CF2O)xCF(CF3)C(O)N(H)CH2CH2OH), or mixtures thereof, in rats. Male Sprague-Dawley rats (N=4 to 6 rats per dose group) received a single 30 mg/kg dose of the various HFPO alcohol oligomers in propylene glycol by oral gavage at a volume of 5 ml/kg. Necropsies were performed on day one and day four post dose.
Serum samples obtained at necropsy were analyzed for total fluorine based on published methods (1) using an Antek 9000F Fluoride Analysis System. The method was based on oxy-pyrohydrolysis at 1050° C., whereby the C—F bond is broken and the resulting product, hydrogen fluoride (HF), is trapped in a buffer solution and measured with the fluoride ion electrode. The total fluorine levels obtained by this method reflect the total organic fluorine in the serum samples and are reported in Table 2.

| Substance | Amount of Total F ppm (SD) in serum, Day 1 Post-Dose | Amount of Total F ppm (SD) in serum, Day 4 Post-Dose | apparent half-life serum fluorine levels |
| --- | --- | --- | --- |
| CF3CF2CF2O(CF(CF3)CF2O)xCF(CF3)C(O)N(H)CH2CH2OH [Example 2] | 0.15 (0.00) ppm | 0.15 (0.00) ppm |  |
| CF3CF2CF2O(CF(CF3)CF2O)xCF(CF3)C(O)N(H)CH2CH2OH [Example 3] | 0.15 (0.00) ppm | 0.15 (0.00) ppm |  |
| CF3CF2CF2O(CF(CF3)CF2O)xCF(CF3)C(O)N(H)CH2CH2OH [Example C1] | 7.55 (1.34) ppm | 3.90 (0.00) ppm | approximately four |
